# Reference: US20220132847A1, “CINNOLINIUM COMPOUNDS FOR USE IN A METHOD OF CONTROLLING UNWANTED PLANT GROWTH” (SYNGENTA CROP PROTECTION AG, priority 2019, published 2022)
# Where a name gives a salt, the structure may show the parent alone.
# Legend:
# Assay in all cases: Post-emergence efficacy, glasshouse
# Type in all cases: in vivo
# [1] = test system: Eleusine indica (ELEIN); conditions: Eleusine indica, post-emergence, 312 h; Application Rate 1000 g/Ha; evaluated after 13 days; 100=total damage to plant, 0=no damage to plant; read-out: Control of weed species after post-emergence application, ELEIN
# Protocol: (§1) Seeds of a variety of test species were sown in standard soil in pots. After cultivation for 14 days (post-emergence) under controlled conditions in a glasshouse (at 24/16° C., day/night; 14 hours light; 65% humidity), the plants were sprayed with an aqueous spray solution derived from the dissolution of the technical active ingredient formula (I) in a small amount of acetone and a special solvent and emulsifier mixture referred to as IF50 (11.12% Emulsogen EL360™+44.44% N-methylpyrrolidone+44.44% Dowanol DPM glycol ether), to create a 50 g/l solution which was then diluted to required concentration using 0.25% or 1% Empicol ESC70 (Sodium lauryl ether sulphate)+1% ammonium sulphate in water as diluent.
# (§2) The test plants were then grown in a glasshouse under controlled conditions (at 24/16° C., day/night; 14 hours light; 65% humidity) and watered twice daily. After 13 days the test was evaluated (100=total damage to plant; 0=no damage to plant).
# (§3) Ipomoea hederacea (IPOHE), Euphorbia heterophylla (EPHHL), Chenopodium album (CHEAL), Amaranthus palmeri (AMAPA), Lolium perenne (LOLPE), Digitaria sanguinalis (DIGSA), Eleusine indica (ELEIN), Echinochloa crus-galli (ECHCG), Setaria faberi (SETFA)
# [2] = test system: Ipomoea hederacea (IPOHE); conditions: Ipomoea hederacea, post-emergence, 312 h; Application Rate 1000 g/Ha; evaluated after 13 days; 100=total damage to plant, 0=no damage to plant; read-out: Control of weed species after post-emergence application, IPOHE
# Protocol: as §1, §2, §3
# [3] = test system: Echinochloa crus-galli (ECHCG); conditions: Echinochloa crus-galli, post-emergence, 312 h; Application Rate 1000 g/Ha; evaluated after 13 days; 100=total damage to plant, 0=no damage to plant; read-out: Control of weed species after post-emergence application, ECHCG
# Protocol: as §1, §2, §3
# [4] = test system: Lolium perenne (LOLPE); conditions: Lolium perenne, post-emergence, 312 h; Application Rate 1000 g/Ha; evaluated after 13 days; 100=total damage to plant, 0=no damage to plant; read-out: Control of weed species after post-emergence application, LOLPE
# Protocol: as §1, §2, §3
# [5] = test system: Chenopodium album (CHEAL); conditions: Chenopodium album, post-emergence, 312 h; Application Rate 1000 g/Ha; evaluated after 13 days; 100=total damage to plant, 0=no damage to plant; read-out: Control of weed species after post-emergence application, CHEAL
# Protocol: as §1, §2, §3
# [6] = test system: Amaranthus palmeri (AMAPA); conditions: Amaranthus palmeri, post-emergence, 312 h; Application Rate 1000 g/Ha; evaluated after 13 days; 100=total damage to plant, 0=no damage to plant; read-out: Control of weed species after post-emergence application, AMAPA
# Protocol: as §1, §2, §3
# [7] = test system: Euphorbia heterophylla (EPHHL); conditions: Euphorbia heterophylla, post-emergence, 312 h; Application Rate 1000 g/Ha; evaluated after 13 days; 100=total damage to plant, 0=no damage to plant; read-out: Control of weed species after post-emergence application, EPHHL
# Protocol: as §1, §2, §3
# [8] = test system: Digitaria sanguinalis (DIGSA); conditions: Digitaria sanguinalis, post-emergence, 312 h; Application Rate 1000 g/Ha; evaluated after 13 days; 100=total damage to plant, 0=no damage to plant; read-out: Control of weed species after post-emergence application, DIGSA
# Protocol: as §1, §2, §3
# [9] = test system: Setaria faberi (SETFA); conditions: Setaria faberi, post-emergence, 312 h; Application Rate 1000 g/Ha; evaluated after 13 days; 100=total damage to plant, 0=no damage to plant; read-out: Control of weed species after post-emergence application, SETFA
# Protocol: as §1, §2, §3
SMILES,pest or weed control at 1000 g/ha [1] [%],pest or weed control at 1000 g/ha [2] [%],pest or weed control at 1000 g/ha [3] [%],pest or weed control at 1000 g/ha [4] [%],pest or weed control at 1000 g/ha [5] [%],pest or weed control at 1000 g/ha [6] [%],pest or weed control at 1000 g/ha [7] [%],pest or weed control at 1000 g/ha [8] [%],pest or weed control at 1000 g/ha [9] [%]
Cn1nnnc1[N-]C(=O)c1c[n+](C)nc2ccccc12 [Compound A16],0,40,20,10,60,50,30,0,10
CC(C)P(=O)([O-])c1c[n+](C)nc2ccccc12 [Compound A46],100,100,90,60,100,100,100,100,90
CCCC[n+]1cc(C(=O)[N-]S(C)(=O)=O)c2ccccc2n1 [Compound A41],30,80,20,30,60,80,100,40,40
CCS(=O)(=O)[N-]C(=O)c1c[n+](C)nc2ccccc12 [Compound A37],70,80,40,40,80,100,90,80,60
"C[n+]1cc(P(=O)([O-])O)c2ccccc2n1 [Compound A78, hydroxy-(2-methylcinnolin-2-ium-4-yl)phosphinate]",40,10,50,10,10,30,70,50,40
"O=C(O)c1c[n+](CCOS(=O)(=O)[O-])nc2ccccc12 [Compound A28, 2-(4-carboxycinnolin-2-ium-2-yl)ethyl sulfate]",40,20,20,50,70,90,30,70,40
C[n+]1cc(C(=O)[N-]c2nnn[nH]2)c2ccccc2n1 [Compound A17],20,40,0,10,30,50,20,10,10
